Data from patent US12076300B2, “Dosage regime with esketamine for treating major depressive disorder” (priority 2019, dated 2024).

How the values were obtained:
[1] = Single dose, randomized, open-label, crossover study in healthy volunteers: pharmacokinetics; details: plasma analyte after single dose esketamine hydrochloride 20 mg oral solution; 15 subjects
Excerpt: A randomized, open-label 4-way crossover study in 16 healthy male and female subjects was held wherein said subjects were placed in a randomly assigned order and administered esketamine. Each subject was assigned to 1 of 4 treatment sequences according to a randomization code such that 4 subjects were assigned to each treatment sequence. There was a wash-out period of at least 7 days between dosing periods with doses consisting of either oral or intravenous esketamine hydrochloride. The study consisted of an eligibility screening period of 28 days, 4 study periods involving administration of a single dose of esketamine hydrochloride followed by safety assessments with blood sampling for PK purposes up to 72 hours after study drug administration, discharge at 72 hours after study drug administration and a follow-up visit 7-14 days after the last PK blood sample was taken on Day 4.

[2] = tested on: human peripheral blood lymphocytes (HPBL)
Procedure: The clastogenic potential of (S)-norketamine was evaluated in the in vitro mammalian chromosome aberration test using human peripheral blood lymphocytes (HPBL) in both the absence and presence of an induced metabolic activation system (the 9000 g supernatant [S9] microsomal fraction of liver homogenate from rats exposed to phenobarbital/5,6-benzoflavone).
The study was conducted in 2 phases, with a preliminary toxicity test used to determine the appropriate concentrations for the definitive chromosomal aberration assay. Water was used as a negative (vehicle) control. In both phases, the cells were treated for 3 and 21 hours in the absence of S9 mix and for 3 hours in the presence of S9 mix. The mitotic index was assessed for all cultures to determine cytotoxicity. Ten concentrations, ranging from 2.62 to 260.16 μg/mL, were evaluated in the preliminary toxicity test.

[3] = tested on: human peripheral blood lymphocytes (HPBL); remark: listed apart in the source
Procedure: The clastogenic potential of esketamine was evaluated in the in vitro mammalian chromosome aberration test using human peripheral blood lymphocytes (HPBL) in both the absence and presence of an induced metabolic activation system (the 9000 g supernatant [S9] microsomal fraction of liver homogenate from rats exposed to Aroclor-1254).
The study was conducted in 2 phases, with a preliminary toxicity test used to determine the appropriate concentrations for the definitive chromosomal aberration assay. Water was used as a negative (vehicle) control. Toxicity (defined as ≥45% reduction in MI relative to the vehicle control) was evaluated at 9 concentrations, ranging from 0.0238 to 238 μg/ml, after exposure of HPBL to esketamine for 20 hours in the absence of S9 activation, or for 4 hours, either in the presence or absence of S9 activation, followed by a 16-hour recovery period.
The definitive chromosome aberration assay evaluated HPBL cells after exposure to esketamine for 20 hours in the absence of S9 activation, or for 4 hours, either in the presence of absence of S9 activation, followed by a 16-hour recovery. Positive controls for chromosomal aberrations in non-activated and S9-activated evaluations, respectively, consisted of mitomycin C (MMC, 0.6 and 0.3 μg/mL for the 4- and 20-hour exposures, respectively) and cyclophosphamide (CP, 2.5, 5, and 7.5 μg/mL). […] Initially, the doses selected for evaluation of chromosomal aberrations were 60, 120, and 238 μg/mL for the non-activated 4- and 20-hour treatment conditions; and 30, 60, and 200 μg/mL for the S9-activated 4-hour treatment condition.

male Sprague Dawley rats = experiment: 7-day forced swim test; assay type: in vivo
Procedure: Groups of, 6-7 week old, male Sprague Dawley rats were administered esketamine by intraperitoneal injection and their behavioral despair assessed by a forced swim test. The animals, in cohorts of 10, were administered either a single dose of 15 mg/kg esketamine, 7 daily doses of either 7.5 or 15 mg/kg esketamine or a vehicle control, and the test performed 30 minutes after dosing. Statistical evaluation was performed using an ordinary One-Way ANOVA, t Test and an Uncorrected Fisher's LSD comparisons test.

[4] = Domino (2010); cited from earlier work
[5] = tested on: healthy male and female subjects; experiment: Single dose crossover study in healthy volunteers: treatment-emergent adverse events; assay type: in vivo, human; details: all treatments, 16 subjects
Excerpt: A total of 128 TEAEs (treatment-emergent adverse event) were reported by 15 of 16 (94%) subjects of which 79 TEAEs reported by 14 of 16 (88%) subjects were to be related to the study drug. Overall, a total of 14 of 128 TEAEs reported by 4 (25%) subjects were of moderate severity and 114 of 128 TEAEs reported by 15 (94%) subjects were of mild severity. […] The most frequently occurring adverse events (reported more than twice) were headache, dizziness, hypokinesia, feeling abnormal, fatigue, euphoric mood inappropriate affect, nausea and hyperhidrosis. Table 4 presents the frequency of the most frequently reported related TEAEs as a percentage of the subjects that experienced an adverse effect per treatment.

[6] = Pharmacokinetics of 40 mg oral esketamine in MDD participants treated with an antidepressant; assay type: in vivo, human; details: 40 mg oral esketamine hydrochloride once daily for 7 days, 15 MDD subjects
Procedure: An 18 subject in patient study to assess the safety, tolerability, and pharmacokinetics of 40 mg oral esketamine in MDD participants currently treated with an antidepressant drug was held. In an, up to, 35 day screening phase, the subjects were assessed for study eligibility and, if needed, washed out from disallowed drugs. During this period, it was also determined whether the subject's current dose of oral antidepressant medication had been stable for at least 4 weeks.

[7] = Repeated dose 28 day toxicokinetics; details: males vs females
Procedure: The objective of the study was to assess the potential toxicity, neurobehavioral effects, and toxicokinetics (TK) of esketamine when administered orally, via gavage, to Sprague Dawley rats for 28 days and to evaluate recovery during a 14-day drug-free period. Fifty male and 50 female rats were randomized into 4 groups (15/sex/Groups 1 and 4; 10/sex/Groups 2 and 3). Esketamine was administered via oral gavage once daily for 28 consecutive days to males at 0 (vehicle control), 6, 10 or 30 mg/kg/day and females at 0 (vehicle control), 2, 10 or 20 mg/kg/day in a dose volume of 10 mL/kg. Animals were observed until euthanized and necropsied on Day 29 (10/sex/group) or 43 (5/sex from Groups 1 and 4). Toxicity was evaluated based on mortality, clinical observations, body weights, food consumption, ophthalmology, motor activity, functional observational battery, clinical pathology (clinical chemistry, hematology, coagulation and urinalysis), organ weights, anatomic (macroscopic or microscopic) pathology. Toxicokinetic animals (3/sex/Group 1; 6/sex/Groups 2, 3, and 4) were similarly dosed and bled on Day 1 and during Week 4 for toxicokinetic analysis.

Q: Which “t1/2, geometric mean” value [1] does the source give for N[C@]1(c2ccccc2Cl)CCC[C@H](O)C1=O [(2S,6S)-OH-Norketamine, (2S,6S)-2-Amino-2-(2-chlorophenyl)-6-hydroxycyclohexanone] here?
A: 7.83 h

Q: For N[C@]1(c2ccccc2Cl)CCCCC1=O [(S)-norketamine, (2S)-2-(2-Chlorophenyl)-2-(amino) cyclohexanone], which “clastogenicity (structural and numerical chromosomal aberrations)” value [2] is on record?
A: non-clastogenic

Q: With CN[C@]1(c2ccccc2Cl)CCCCC1=O [esketamine, (2S)-2-(2-Chlorophenyl)-2-(methylamino) cyclohexanone] as the compound, how does the “Cochran-Armitage test for dose response of structural aberrations” value [3] read?
A: positive for a dose response

Q: And the “induction of numerical chromosomal aberrations” value [3]?
A: negative

Q: And the “induction of structural and numerical chromosomal aberrations” value [3]?
A: negative

Q: What about the “toxicity (≥45% reduction in MI relative to the vehicle control), preliminary toxicity test” value [3] of the same compound?
A: not observed at any dose

Q: What about the “cytotoxicity (≥45% reduction in mitotic index relative to the vehicle control), definitive assay” value ([3]; non-activated 4- and 20-hour treatment, 30 to 238 μg/ml) of the same compound?
A: not observed at any esketamine dose

Q: What about the “antidepressant-like effect, continuous 7-day treatment vs single acute dose” value (male Sprague Dawley rats; same dose levels) of the same compound?
A: stronger antidepressant-like effect than a single acute dose

Q: And the “effect on immobility time, acute treated rats” value (male Sprague Dawley rats; single dose of 15 mg/kg intraperitoneal, test 30 minutes after dosing)?
A: 42 % of control

Q: What about the “psychotomimetic side effects compared with (R)-ketamine” value [4] of the same compound?
A: greater undesirable psychotomimetic side effects

Q: What about the “total number of TEAEs reported” value [5] of the same compound?
A: 128

Q: What about the “mean esketamine Cmax” value [6] of the same compound?
A: 11.82 ng/mL

Q: And the AUC(0-t) ([6]; human, in vivo, read-out: mean esketamine AUC0-t)?
A: 35.6 ng·h/mL

Q: What about the “exposure by sex after normalization for dose level differences” value [7] of the same compound?
A: males had lower exposures than females
